In patent US20140135310A1, “SULPHONAMIDE DERIVATIVES OF ALICYCLIC AMINES FOR THE TREATMENT OF CENTRAL NERVOUS SYSTEM DISEASES” (Adamed Sp. z o.o., priority 2011, published 2014):
Like-named read-outs stand apart in the source and are kept apart here.

Legend:
Type in all cases: cell-based
[1] = molecular target: T1, 5-HT1A serotoninergic receptors (Homo sapiens, UniProt P08908); assay: Cellular functional assay, 5-HT1A serotoninergic receptors; conditions: for 5-HT1A ag [%]: agonist mode, percent of control specific agonist response; for 5-HT1A antag [%]: antagonist mode
T1 sequence (P08908 1-422): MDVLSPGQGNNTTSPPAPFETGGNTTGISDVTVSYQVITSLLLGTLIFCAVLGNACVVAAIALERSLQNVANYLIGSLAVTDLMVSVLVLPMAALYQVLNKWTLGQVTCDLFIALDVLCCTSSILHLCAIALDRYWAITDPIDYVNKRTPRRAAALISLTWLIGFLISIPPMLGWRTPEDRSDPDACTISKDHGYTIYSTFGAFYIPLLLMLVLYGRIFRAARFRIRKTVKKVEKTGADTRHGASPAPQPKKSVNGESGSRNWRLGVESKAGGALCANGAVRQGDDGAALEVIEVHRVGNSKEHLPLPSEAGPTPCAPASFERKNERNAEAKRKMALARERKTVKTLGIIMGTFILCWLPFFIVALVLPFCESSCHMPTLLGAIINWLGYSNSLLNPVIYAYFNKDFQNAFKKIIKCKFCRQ
Procedure: (§1) The results are expressed as a percent of control specific agonist response ((measured specific response/control specific agonist response)×100) obtained in the presence of the test compounds.
(§2) The EC50 values (concentration producing a half-maximal specific response) and IC50 values (concentration causing a half-maximal inhibition of the control specific agonist response) were determined by non-linear regression analysis of the concentration-response curves generated with mean replicate values using Hill equation curve fitting (Y=D+[(A−D)/(1+(C/C50)nH)], where Y=specific response, D=minimum specific response, A=maximum specific response, C=compound concentration, and C50=EC50 or IC50, and nH=slope factor). This analysis was performed using a software developed at Cerep (Hill software) and validated by comparison with data generated by the commercial software SigmaPlot® 4.0 for Windows® (© 1997 by SPSS Inc.).
(§3) For the antagonists, the apparent dissociation constants (Kb) were calculated using the modified Cheng Prusoff equation (Kb=IC50/(1+(A/EC50A)), where A=concentration of reference agonist in the assay, and EC50A=EC50 value of the reference agonist).

[2] = molecular target: 5-HT2A serotoninergic receptors (Homo sapiens, UniProt P28223); assay: Cellular functional assay, 5-HT2A serotoninergic receptors
Chain of 5-HT2A serotoninergic receptors (P28223 whole entry): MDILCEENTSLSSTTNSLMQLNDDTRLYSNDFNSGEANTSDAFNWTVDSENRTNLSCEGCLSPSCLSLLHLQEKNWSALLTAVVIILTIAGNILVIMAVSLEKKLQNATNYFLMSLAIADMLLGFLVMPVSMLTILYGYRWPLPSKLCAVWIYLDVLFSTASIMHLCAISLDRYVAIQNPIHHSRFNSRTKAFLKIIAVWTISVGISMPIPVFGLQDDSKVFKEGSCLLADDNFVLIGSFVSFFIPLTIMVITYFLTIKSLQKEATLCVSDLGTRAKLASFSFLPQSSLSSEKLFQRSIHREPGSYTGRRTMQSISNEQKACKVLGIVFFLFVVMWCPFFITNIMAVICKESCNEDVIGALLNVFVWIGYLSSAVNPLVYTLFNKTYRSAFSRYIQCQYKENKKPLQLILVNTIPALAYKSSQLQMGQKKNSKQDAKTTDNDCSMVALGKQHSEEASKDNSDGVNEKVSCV
Procedure: as §1
The EC50 values (concentration producing a half-maximal specific response) and IC50 values (concentration causing a half-maximal inhibition of the control specific agonist response) were determined by non-linear regression analysis of the concentration-response curves generated with mean replicate values using Hill equation curve fitting (Y=D+[(A−D)/(1+(C/C50)nH)], where Y=specific response, D=minimum specific response, A=maximum specific response, C=compound concentration, and C50=EC50 or IC50, and nH=slope factor).
as §3

[3] = molecular target: 5-HT7 serotoninergic receptors (Homo sapiens, UniProt P34969); assay: Cellular functional assay, 5-HT7 serotoninergic receptors; conditions: for 5-HT7 ag [%]: agonist mode, percent of control specific agonist response; for 5-HT7 antag [%]: antagonist mode
Chain of 5-HT7 serotoninergic receptors (P34969 whole entry): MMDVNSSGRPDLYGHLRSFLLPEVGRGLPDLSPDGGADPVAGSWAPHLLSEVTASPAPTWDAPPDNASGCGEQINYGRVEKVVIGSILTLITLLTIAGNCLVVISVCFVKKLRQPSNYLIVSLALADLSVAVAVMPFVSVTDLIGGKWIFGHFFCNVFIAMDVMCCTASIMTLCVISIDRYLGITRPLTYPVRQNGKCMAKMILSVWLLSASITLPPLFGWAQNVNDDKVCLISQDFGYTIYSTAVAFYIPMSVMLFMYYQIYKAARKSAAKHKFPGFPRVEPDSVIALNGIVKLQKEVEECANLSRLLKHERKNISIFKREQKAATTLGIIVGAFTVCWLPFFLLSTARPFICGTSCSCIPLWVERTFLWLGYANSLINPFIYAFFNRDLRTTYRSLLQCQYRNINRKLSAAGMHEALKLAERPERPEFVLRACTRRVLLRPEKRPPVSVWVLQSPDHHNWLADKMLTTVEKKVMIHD
Procedure: as §1, §2, §3

[4] = molecular target: D2 dopaminergic receptors (Homo sapiens, UniProt P14416); assay: Cellular functional assay, D2 dopaminergic receptors; conditions: D2S (h), HEK-293 cells; for D2 ag [%]: agonism, percent of control specific agonist response (3 μM dopamine for control); for D2 antag [%]: antagonism, stimulus dopamine (30 nM)
Chain of D2 dopaminergic receptors (P14416 whole entry): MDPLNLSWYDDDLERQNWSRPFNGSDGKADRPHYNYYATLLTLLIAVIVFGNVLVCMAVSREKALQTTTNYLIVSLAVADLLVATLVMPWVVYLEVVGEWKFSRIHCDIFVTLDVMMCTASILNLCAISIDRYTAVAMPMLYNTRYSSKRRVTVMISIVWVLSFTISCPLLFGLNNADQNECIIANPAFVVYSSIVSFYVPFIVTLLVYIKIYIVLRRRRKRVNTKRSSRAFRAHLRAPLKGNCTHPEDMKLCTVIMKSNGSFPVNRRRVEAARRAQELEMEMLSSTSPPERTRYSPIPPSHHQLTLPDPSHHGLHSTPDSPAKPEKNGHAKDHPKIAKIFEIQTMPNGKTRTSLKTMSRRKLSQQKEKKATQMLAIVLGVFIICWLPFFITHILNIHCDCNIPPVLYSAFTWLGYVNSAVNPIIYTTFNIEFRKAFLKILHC
Procedure: as §1, §2, §3

[5] = molecular target: D3 dopaminergic receptors (Homo sapiens, UniProt P35462); assay: Cellular functional assay, D3 dopaminergic receptors; conditions: D3 (h), CHO cells; for D3 ag [%]: agonism, percent of control specific agonist response (0.3 μM dopamine for control); for D3 antag [%]: antagonism, stimulus dopamine (10 nM)
Chain of D3 dopaminergic receptors (P35462 whole entry): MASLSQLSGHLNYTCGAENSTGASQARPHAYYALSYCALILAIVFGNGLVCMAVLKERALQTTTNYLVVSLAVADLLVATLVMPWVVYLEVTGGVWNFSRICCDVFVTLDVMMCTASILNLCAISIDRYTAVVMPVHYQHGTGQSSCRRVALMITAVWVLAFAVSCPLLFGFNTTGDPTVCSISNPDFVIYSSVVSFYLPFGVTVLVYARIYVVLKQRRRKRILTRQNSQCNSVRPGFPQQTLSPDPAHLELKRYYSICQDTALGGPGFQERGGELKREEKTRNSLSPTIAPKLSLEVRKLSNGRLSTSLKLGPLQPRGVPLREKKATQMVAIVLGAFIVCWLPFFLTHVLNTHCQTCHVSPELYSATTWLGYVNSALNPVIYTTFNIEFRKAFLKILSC
Procedure: as §1, §2, §3

[6] = molecular target: 5-HT6 serotoninergic receptors (Homo sapiens, UniProt P50406); assay: Cellular functional assay, 5-HT6 serotoninergic receptors; conditions: agonist mode; percent of control specific agonist response
Chain of 5-HT6 serotoninergic receptors (P50406 whole entry): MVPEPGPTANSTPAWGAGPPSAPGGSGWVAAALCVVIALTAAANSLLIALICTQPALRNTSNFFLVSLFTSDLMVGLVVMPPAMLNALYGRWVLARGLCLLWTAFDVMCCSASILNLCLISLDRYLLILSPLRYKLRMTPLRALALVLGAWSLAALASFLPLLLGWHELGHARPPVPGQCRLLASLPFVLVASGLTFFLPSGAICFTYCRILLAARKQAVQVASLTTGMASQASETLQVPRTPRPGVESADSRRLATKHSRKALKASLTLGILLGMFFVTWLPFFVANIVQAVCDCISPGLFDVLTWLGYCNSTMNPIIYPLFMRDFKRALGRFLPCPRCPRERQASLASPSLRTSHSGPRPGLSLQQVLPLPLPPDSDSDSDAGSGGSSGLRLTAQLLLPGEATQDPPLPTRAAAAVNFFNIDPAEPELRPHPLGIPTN
Procedure: as §1, §2, §3

[7] = molecular target: T2, D4 dopaminergic receptors (Homo sapiens, UniProt P21917); assay: Cellular functional assay, D4 dopaminergic receptors; conditions: D4.4 (h), CHO cells; for D4 ag [%]: agonism, percent of control specific agonist response (300 nM dopamine for control); for D4 antag [%]: antagonism, stimulus dopamine (100 nM)
T2 sequence (P21917 1-419): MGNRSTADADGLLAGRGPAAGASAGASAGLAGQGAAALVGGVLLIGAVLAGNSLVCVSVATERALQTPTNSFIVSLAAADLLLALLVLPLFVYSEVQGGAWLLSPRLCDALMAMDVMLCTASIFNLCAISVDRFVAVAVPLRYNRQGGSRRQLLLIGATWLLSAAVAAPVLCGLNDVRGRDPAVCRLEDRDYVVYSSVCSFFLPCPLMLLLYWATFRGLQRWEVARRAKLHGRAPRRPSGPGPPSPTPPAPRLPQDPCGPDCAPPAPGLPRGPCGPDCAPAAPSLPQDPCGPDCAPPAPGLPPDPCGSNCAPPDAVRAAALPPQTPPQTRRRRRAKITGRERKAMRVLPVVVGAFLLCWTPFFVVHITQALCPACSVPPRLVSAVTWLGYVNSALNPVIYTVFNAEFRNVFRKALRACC
Procedure: as §1, §2, §3

[8] = agonist mode, percent of control specific agonist response

| Molecule | 5-HT1A ag [%] [1] [%] | 5-HT1A antag [%] [1] [%] | 5-HT2A ag [%] [2, 8] [%] | 5-HT2A antag [%] ([2]; antagonist mode) | 5-HT7 ag [%] [3] [%] | 5-HT7 antag [%] [3] [%] | D2 ag [%] [4] [%] | D2 antag [%] [4] [%] | D3 ag [%] [5] [%] | D3 antag [%] [5] [%] | 5-HT6 ag [%] [6] [%] | 5-HT2A ag [%] [2] [%] | 5-HT2A antag [%] [2] [%] | D4 ag [%] [7] [%] | D4 antag [%] [7] [%] |
| --- | --- | --- | --- | --- | --- | --- | --- | --- | --- | --- | --- | --- | --- | --- | --- |
| N-[[1-[2-[(2,2-Dimethyl-3H-benzofuran-7-yl)oxy]ethyl]azetidin-3-yl]methyl]-3-hydroxy-benzenesulphonamide [Compound 111] | 48 | 89 | 5 | 58 | 24 | 55 | 36 | 89 |  |  |  |  |  |  |  |
| Cc1cccc(S(=O)(=O)NC2CCN(CCCc3c[nH]c4ccc(F)cc34)C2)c1 (centres unmarked) [Compound 78, N-[1-[3-(5-Fluoro-1H-indol-3-yl)propyl]pyrrolidin-3-yl]-3-methyl-benzenesulphonamide] | 54 |  |  |  |  |  |  |  | 89 | −10 | 54 | 51 | −1 |  |  |
| Cc1cc(S(=O)(=O)NC2CCN(CCCc3noc4cc(F)ccc34)C2)c(C)s1 (centres unmarked) [Compound 221, N-[1-[3-(6-Fluoro-1,2-benzoxazol-3-yl)propyl]pyrrolidin-3-yl]-2,5-dimethyl-thiophene-3-sulphonamide] |  |  |  |  | 2 |  | 14 | 97 | −3 | 100 | −4 | −2 |  | 10 | 73 |
| O=S(=O)(NC1CN(CCOc2cccc3c2OCCO3)C1)c1ccc(Cl)cc1 [Compound 92, 4-Chloro-N-[1-[2-(2,3-dihydro-1,4-benzodioxan-8-yloxy)ethyl]azetidin-3-yl]benzene-sulphonamide] | 47 | 89 |  |  | 18 | 69 |  |  |  |  |  |  |  |  |  |
| Cc1cccc(S(=O)(=O)NC2CN(CCOc3cccc4c3OCCO4)C2)c1 [Compound 93, N-[1-[2-(2,3-Dihydro-1,4-benzodioxan-8-yloxy)ethyl]azetidin-3-yl]-3-methyl-benzenesulphonamide] | 37 | 76 |  |  | 13 | 76 |  |  |  |  |  |  |  |  |  |
| O=S(=O)(NC1CN(CCOc2cccc3[nH]ccc23)C1)c1cccc2ccccc12 [Compound 49, N-[1-[2-(1H-Indol-4-yloxy)ethyl]azetidin-3-yl]naphthalene-1-sulphonamide] | 39 |  |  |  | 26 |  | 57 | 97 | 75 | 12 |  |  |  |  |  |
| O=S(=O)(NC1CCN(CCCc2c[nH]c3ccc(F)cc23)C1)c1ccc2ccccc2c1 (centres unmarked) [Compound 80, N-[1-[3-(5-Fluoro-1H-indol-3-yl)propyl]pyrrolidin-3-yl]naphthalene-2-sulphonamide] | 42 |  |  |  | 3 |  | 33 | 78 | 91 | −5 | 9 | 34 |  | 6 | 80 |
| O=S(=O)(NC1CN(CCOc2cccc3[nH]ccc23)C1)c1ccc2ccccc2c1 [Compound 50, N-[1-[2-(1H-Indol-4-yloxy)ethyl]azetidin-3-yl]naphthalene-2-sulphonamide] | 48 |  |  |  | 21 |  | 56 | 92 | 85 | 0 |  | −2 |  | 62 | 32 |
| O=S(=O)(NC1CCN(CCOc2cccc3[nH]ccc23)CC1)c1ccccc1 [Compound 55, N-[1-[2-(1H-Indol-4-yloxy)ethyl]-4-piperidine]benzenesulphonamide] | 72 | 18 | −1 |  | 5 | 48 |  |  | 82 | −33 |  |  |  |  |  |
| O=S(=O)(N[C@@H]1CCN(CCCc2noc3cc(F)ccc23)C1)c1csc2ccccc12 [Compound 224, N-[(3R)-1-[3-(6-Fluoro-1,2-benzoxazol-3-yl)propyl]pyrrolidin-3-yl]benzothiophene-3-sulphonamide] |  |  | −2 |  | −1 |  | 5 | 57 |  |  | −1 |  |  | −7 | 84 |
| O=S(=O)(NC1CCN(CCOc2nsc3ccccc23)C1)c1ccc2ccccc2c1 (centres unmarked) [Compound 39, N-[1-[2-(1,2-Benzothiazol-3-yloxy)ethyl]pyrrolidin-3-yl]naphthalene-2-sulphonamide] | 34 |  |  |  | 1 |  |  |  | 66 | 16 | −1 | 3 |  |  |  |
| O=S(=O)(N[C@H]1CCN(CCCc2noc3cc(F)ccc23)C1)c1csc2ccccc12 [Compound 225, N-[(3S)-1-[3-(6-Fluoro-1,2-benzoxazol-3-yl)propyl]pyrrolidin-3-yl]benzothiophene-3-sulphonamide] |  |  | −1 |  | 0 |  | 7 | 52 |  |  | 1 |  |  | −3 | 35 |
